Series [1] is described as follows: Topical alprostadil patch on laser-perforated penis skin. The conditions noted are these: three 2 mm spots, 5 J/cm^2; patch held 45 minutes. It is filed as in vivo, human. The source says: The duration of the pulse was approximately 300 μs. The spot size was approximately 2 mm, with an energy fluence of 5 J/cm^2. Single pulses were used. Three 2 mm diameter spots were created on a flaccid penis. Subsequent to ablation a pharmaceutical preparation of alprostadil (Caverject from Pharmacia & Upjohn, Kalamazoo, Mich.) was applied to a small patch consisting of tissue paper. The patch was applied to the multiple perforated areas of the skin on the then flaccid penis and held there with adhesive tape for 45 minutes. After approximately 35 minutes, the patient obtained an erection that was sustained for more than 1 hour.

A short description of series [2]: Permeation of radiolabelled corticosterone or DNA through laser-irradiated human skin in diffusion cells. It is filed as in vitro ADME. The conditions noted are these: 2 mm spot, donor removed after 15 minutes. As for the experimental part: Pieces of human skin were placed in diffusion cells and irradiated with a single pulse of radiant energy produced by an Er:YAG laser. The spot size was 2 mm and the energy of the pulse was measured with a calibrated energy meter. After irradiation, the diffusion cells were placed in a 37 degrees Celsius heating block. Phosphate buffered saline was added to the receptor chamber below the skin and a small stir bar was inserted in the receptor chamber to keep the fluid continually mixed. Control skin was left unirradiated. Small volumes of radiolabelled compounds (either corticosterone or DNA) were then added to the donor chamber and left for 15 minutes before being removed (in the case of corticosterone) or were left for the entire duration of the experiment (in the case of the DNA). Samples were then taken from the receptor chamber at various times after application of the test compound and measured in a scintillation or gamma counter.

A short description of series [3]: In vivo blanching assay (chromameter skin redness) on laser-irradiated forearm spots. Also noted: species or system human. The text has this: In the case of the blanching assay, baseline skin color (redness) measurements were then taken of each spot using a Minolta CR-300 Chromameter (Minolta Inc., NJ). The Er:YAG laser was then used to ablate six 2 mm spots on one forearm, at energies of 40, 80 and 120 mJ. A spot (negative calorimeter control) directly adjacent to the laser irradiated spots remained untouched. Subsequently, a thin film of 1% hydrocortisone ointment was applied to six of the lased spots on the treatment arm. One untouched spot on the contralateral arm was administered a thin layer of Diprolene (β-methasone), which is a strong steroid that can permeate the intact stratum corneum in an amount sufficient to cause measurable skin blanching. An occlusive patch, consisting of simple plastic wrap, was fixed with gauze and dermatological tape over all sites on both arms and left in place for two hours, after which the administered steroids were gently removed with cotton swabs. […] Finally, the skin was clinically assessed for evidence of irritation at the 26 hour evaluation.

Series [4] in a line: In vitro permeation study of tritiated water through lased human skin. It is filed as in vitro ADME. Conditions: 50 mJ (1.6 J/cm^2) to 1250 mJ (40 J/cm^2); increase at low fluences up to about 5 J/cm^2, then more-or-less constant. The text has this:
Histology studies on rat and human skin, irradiated either in vivo or in vitro, show little or no evidence of ablation when Er:YAG laser pulse energies less than about 100-200 mJ are used. (See, e.g., FIG. 25).

Series [5] can be described thus: Permeation of radiolabelled drugs through Er:YAG laser-irradiated human skin in Franz diffusion cells. It is filed as in vitro ADME.
Source text: The output of the Er:YAG laser was passed through an aperture to define it's diameter as 2 mm. Human skin, purchased from a skin bank, was positioned in Franz diffusion cells. The receptor chamber of the cell was filled with 0.9% buffered saline. A single pulse, of measured energy, was used to irradiate the skin in separate diffusion cells. Control skin was left unirradiated. […] In the case of γ-interferon, a 285 mJ pulse was used, and multiple samples were irradiated. […] In the case of cortisone, either 77 mJ or 117 mJ was used. After irradiation, a stirring magnet was place in the receptor chamber of the diffusion cells and the cells were placed in a heating block held at 37° C. […] The donor was left on the skin for the duration of the experiment. At various times post-drug-application, samples were taken from the receptor chamber and the amount of drug present was assayed with either a gamma-counter, or a liquid scintillation counter.

Consider `CCN(CC)CC(=O)Nc1c(C)cccc1C` [Lidocaine, lidocaine], for which the “pain on insertion of 26G-0.5 needle into lased site” value (30% liquid lidocaine solution applied topically for two minutes after 60 mJ pulse) was “no observable pain”. The “pain on full insertion of 22G-1 needle into lased site” value (30% liquid lidocaine solution, 6-minute anesthetic treatment after 60 mJ pulse) is reported as “no observable pain”.
Consider `CCCCC[C@H](O)/C=C/[C@H]1[C@H](O)CC(=O)[C@@H]1CCCCCCC(=O)O` [alprostadil], for which, in series [1], the duration of erection entry was “more than 1 hour” and the time to erection result was “approximately 35 minutes”.
As to `C[C@]12C[C@H](O)[C@H]3[C@@H](CCC4=CC(=O)CC[C@@]43C)[C@@H]1CC[C@@H]2C(=O)CO` [corticosterone], the “permeation through irradiated skin versus unirradiated controls” value in series [2] (77 mJ/pulse (sub-ablative)) and in series [2] (117 mJ pulse) was “enhanced permeation” each time.
As to `C[C@]12CCC(=O)C=C1CC[C@@H]1[C@@H]2[C@@H](O)C[C@@]2(C)[C@H]1CC[C@]2(O)C(=O)CO` [hydrocortisone], the “erythema (reddening) of skin, chromameter measurements” value in series [3] (1% hydrocortisone ointment on spots lased at 40, 80, 120 mJ, occluded two hours, 2-26 hours post-irradiation) is “reddening was less than that seen in the control spots”. The “clinical assessment for irritation” value in series [3] (26 hour evaluation) is on record as “no problems were seen”.
Consider `[3H]O[3H]` [tritiated water], for which the “permeation through lased human skin” value in series [4] is on record as “increase in permeation”.

B1: γ-Interferon: radiolabelled gamma-interferon diluted in buffered saline (protein, UniProt P01579 24-161, looked up)
Interferon gamma: QDPYVKEAENLKKYFNAGHSDVADNGTLFLGILKNWKEESDRKIMQSQIVSFYFKLFKNFKDDQSIQKSVETIKEDMNVKFFNSNKKKRDDFEKLTNYSVTDLNVQRKAIHELIQVMAELSPAAKTGKRKRSQMLFRG
modifications: radiolabel
notes: radiolabelled gamma-interferon diluted in buffered saline
With B1, in series [5], the “Permeability Constant, kp” value is 9.74 +/− 2.05 ×10^−3 cm/hr.
